Data on 28 compounds can be found in patent US8207178B2 (priority 2007, dated 2012).

One assay relates to HIV-1 K103N-L100I mutant. Nature of the assay: microbe, parasite or virus in culture. Particulars: Human immunodeficiency virus 1, HeLa, read-out: EC50 mutant K103N-L100I, mutant K103N-L100I. It counts as cell-based, human immunodeficiency virus type 1 (HIV-1).
In another assay the test system is wild type HIV-1. The assay can be described thus: microbe, parasite or virus in culture. The note with it: Human immunodeficiency virus 1, Hela-JC53. The class given is cell-based, human immunodeficiency virus type 1 (HIV-1).

Consider `Cc1cc(-c2ccncc2)cc(C)c1Oc1nc(Nc2ccc(C#N)cc2)nc2c1cnn2C` [Example 51, 4-(4-(2,6-Dimethyl-4-(pyridin-4-yl)phenoxy)-1-methyl-1H-pyrazolo[3,4-d]pyrimidin-6-ylamino) benzonitrile], for which the EC50 (usually the concentration giving half of the maximal effect) with HIV-1 K103N-L100I mutant was above 10 nM; in the assay with wild type HIV-1, 1 to 10 nM.

Take `Cc1cc(-c2ccc(S(N)(=O)=O)cc2)cc(C)c1Oc1nc(Nc2ccc(C#N)cc2)nc2c1ncn2C` [Example 52, 4′-(2-(4-Cyanophenylamino)-9-methyl-9H-purin-6-yloxy)-3′,5′-dimethylbiphenyl-4-sulfonamide]: the EC50 with HIV-1 K103N-L100I mutant was 1 to 10 nM; in the assay with wild type HIV-1, below 1 nM.

For `Cc1cc(-c2ccc(N)cc2)cc(C)c1Oc1nc(Nc2ccc(C#N)cc2)nc2ccn(C)c12` [Example 54, 4-(4-(4′-Amino-3,5-dimethylbiphenyl-4-yloxy)-5-methyl-5H-pyrrolo[3,2-d]pyrimidin-2-ylamino) benzonitrile], the EC50 in the assay on HIV-1 K103N-L100I mutant is above 10 nM; in the assay on wild type HIV-1, below 1 nM.

For the compound `Cc1cc(-c2ccc(C(N)=O)cc2F)cc(C)c1Oc1nc(Nc2ccc(C#N)cc2)nc2ncn(C)c12` [Example 55, 4′-(2-(4-Cyanophenylamino)-7-methyl-7H-purin-6-yloxy)-2-fluoro-3′,5′-dimethylbiphenyl-4-carboxamide], the EC50 in the assay with HIV-1 K103N-L100I mutant and in the assay on wild type HIV-1 was 1 to 10 nM each time.

Consider `Cc1cc(-c2ccc(C(N)=O)cc2F)cc(C)c1Oc1nc(Nc2ccc(C#N)cc2)nc2c1ncn2C` [Example 56, 4′-(2-(4-Cyanophenylamino)-9-methyl-9H-purin-6-yloxy)-2-fluoro-3′,5′-dimethylbiphenyl-4-carboxamide], for which the EC50 in the assay on HIV-1 K103N-L100I mutant and in the assay with wild type HIV-1 was 1 to 10 nM each time.

On to `Cc1cc(-c2ccnnc2)cc(C)c1Oc1nc(Nc2ccc(C#N)cc2)nc2ccn(C)c12` [Example 57, 4-(4-(2,6-dimethyl-4-(pyridazin-4-yl)phenoxy)-5-methyl-5H-pyrrolo[3,2-d]pyrimidin-2-ylamino) benzonitrile], for which the EC50 in the assay on HIV-1 K103N-L100I mutant was 1 to 10 nM; in the assay with wild type HIV-1, below 1 nM.

For the compound `Cc1cc(-c2ccnnc2)cc(C)c1Oc1nc(Nc2ccc(C#N)cc2)nc2ncn(C)c12` [Example 58, 4-(6-(2,6-Dimethyl-4-(pyridazin-4-yl)phenoxy)-7-methyl-7H-purin-2-ylamino)benzonitrile], the 50% effective concentration (EC50) in the assay on HIV-1 K103N-L100I mutant and in the assay on wild type HIV-1 was 1 to 10 nM throughout.

For the compound `Cc1cc(-c2ccnnc2)cc(C)c1Oc1nc(Nc2ccc(C#N)cc2)nc2c1ncn2C` [Example 59, 4-(6-(2,6-Dimethyl-4-(pyridazin-4-yl)phenoxy)-9-methyl-9H-purin-2-ylamino)benzonitrile], the EC50 in the assay with HIV-1 K103N-L100I mutant is above 10 nM; in the assay with wild type HIV-1, 1 to 10 nM.

Turning to `Cc1cc(-c2ccc(C(N)=O)nc2)cc(C)c1Oc1nc(Nc2ccc(C#N)cc2)nc2ccn(C)c12` [Example 60, 5-(4-(2-(4-Cyanophenylamino)-5-methyl-5H-pyrrolo[3,2-d]pyrimidin-4-yloxy)-3,5-dimethyl-phenyl)picolinamide], the EC50 in the assay on HIV-1 K103N-L100I mutant is above 10 nM; with wild type HIV-1, 1 to 10 nM.

With `Cc1cc(-c2ccc(F)cc2)cc(C)c1Oc1nc(Nc2ccc(C#N)cc2)nc2ccn(C)c12` [Example 62, 4-(4-(4′-fluoro-3,5-dimethylbiphenyl-4-yloxy)-5-methyl-5H-pyrrolo[3,2-d]pyrimidin-2-ylamino) benzonitrile], the EC50 is above 10 nM in the assay with HIV-1 K103N-L100I mutant and 1 to 10 nM with wild type HIV-1.

Consider `Cc1cc(-c2ccc(F)c(C#N)c2)cc(C)c1Oc1nc(Nc2ccc(C#N)cc2)nc2ccn(C)c12` [Example 63, 4′-(2-(4-cyanophenylamino)-5-methyl-5H-pyrrolo[3,2-d]pyrimidin-4-yloxy)-4-fluoro-3′,5′-dimethylbiphenyl-3-carbonitrile], for which the EC50 is 1 to 10 nM in the assay with HIV-1 K103N-L100I mutant and below 1 nM in the assay with wild type HIV-1.

In the case of `Cc1cc(-c2cnccc2C#N)cc(C)c1Oc1nc(Nc2ccc(C#N)cc2)nc2ccn(C)c12` [Example 64, 3-(4-(2-(4-cyanophenylamino)-5-methyl-5H-pyrrolo[3,2-d]pyrimidin-4-yloxy)-3,5-dimethylphenyl) isonicotinonitrile], the EC50 with HIV-1 K103N-L100I mutant and with wild type HIV-1 was below 1 nM throughout.

Consider `Cc1cc(-c2cc(F)cc(F)c2)cc(C)c1Oc1nc(Nc2ccc(C#N)cc2)nc2ccn(C)c12` [Example 65, 4-(4-(3′,5′-difluoro-3,5-dimethylbiphenyl-4-yloxy)-5-methyl-5H-pyrrolo[3,2-d]pyrimidin-2-ylamino) benzonitrile], for which the EC50 in the assay with HIV-1 K103N-L100I mutant is above 10 nM; in the assay with wild type HIV-1, below 1 nM.

Turning to `Cc1cc(-c2cc(F)c(F)c(F)c2)cc(C)c1Oc1nc(Nc2ccc(C#N)cc2)nc2ccn(C)c12` [Example 66], the EC50 in the assay with HIV-1 K103N-L100I mutant is 1 to 10 nM; in the assay with wild type HIV-1 it was below 1 nM.

For `COc1c(F)cc(F)cc1-c1cc(C)c(Oc2nc(Nc3ccc(C#N)cc3)nc3ccn(C)c23)c(C)c1` [Example 67, 4-(4-(3′,5′-difluoro-2′-methoxy-3,5-dimethylbiphenyl-4-yloxy)-5-methyl-5H-pyrrolo[3,2-d]pyrimidin-2-ylamino) benzonitrile], the results for the half-maximal effective concentration (EC50) in the assay with HIV-1 K103N-L100I mutant and in the assay with wild type HIV-1 were above 10 nM and below 1 nM, respectively.

On to `Cc1cc(-c2ccc3c(c2)OCCO3)cc(C)c1Oc1nc(Nc2ccc(C#N)cc2)nc2ccn(C)c12` [Example 68, 4-(4-(4-(2,3-dihydrobenzo [b][1,4]dioxin-6-yl)-2,6-dimethylbipheoxy)-5-methyl-5H-pyrrolo[3,2-d]pyrimidin-2-ylamino) benzonitrile], for which the values for the EC50 with HIV-1 K103N-L100I mutant and with wild type HIV-1 were above 10 nM and below 1 nM, respectively.

Turning to `Cc1cc(-c2ccc3c(c2)OCO3)cc(C)c1Oc1nc(Nc2ccc(C#N)cc2)nc2ccn(C)c12` [Example 69, 4-(4-(4-(benzo[d][1,3]dioxol-5-yl)-2,6-dimethylbiphenoxy)-5-methyl-5H-pyrrolo[3,2-d]pyrimidin-2-ylamino) benzonitrile], the EC50 with HIV-1 K103N-L100I mutant was above 10 nM; with wild type HIV-1, 1 to 10 nM.

For the compound `Cc1cc(-c2ccc(S(N)(=O)=O)cc2)cc(C)c1Oc1nc(Nc2ccc(C#N)cc2)nc2ccn(C)c12` [Example 72, 4′-(2-(4-cyanophenylamino)-5-methyl-5H-pyrrolo[3,2-d]pyrimidin-4-yloxy)-3′,5′-dimethylbiphenyl-4-sulfonamide], the figures for the EC50 in the assay with HIV-1 K103N-L100I mutant and in the assay on wild type HIV-1 were below 1 nM and 1 to 10 nM, respectively.

With `Cc1cc(-c2ccccc2S(N)(=O)=O)cc(C)c1Oc1nc(Nc2ccc(C#N)cc2)nc2ccn(C)c12` [Example 73, 4′-(2-(4-cyanophenylamino)-5-methyl-5H-pyrrolo[3,2-d]pyrimidin-4-yloxy)-3′,5′-dimethylbiphenyl-2-sulfonamide], the EC50 with HIV-1 K103N-L100I mutant and in the assay on wild type HIV-1 was above 10 nM throughout.

`Cc1cc(-c2ccccc2S(=O)(=O)NC(C)(C)C)cc(C)c1Oc1nc(Nc2ccc(C#N)cc2)nc2ccn(C)c12` [Example 74, N-tert-butyl-4′-(2-(4-cyanophenylamino)-5-methyl-5H-pyrrolo[3,2-d]pyrimidin-4-yloxy)-3′,5′-dimethylbiphenyl-2-sulfonamide]: the EC50 in the assay on HIV-1 K103N-L100I mutant and in the assay on wild type HIV-1 was above 10 nM in each case.

As to `Cc1cc(-c2ccc(C(=O)O)cc2)cc(C)c1Oc1nc(Nc2ccc(C#N)cc2)nc2ccn(C)c12` [Example 75, 4′-(2-(4-cyanophenylamino)-5-methyl-5H-pyrrolo[3,2-d]pyrimidin-4-yloxy)-3′,5′-dimethylbiphenyl-4-carboxylic acid], the concentration for a half-maximal effect (EC50) is 1 to 10 nM in the assay with HIV-1 K103N-L100I mutant and below 1 nM in the assay with wild type HIV-1.

For `Cc1cc(-c2cnn(Cc3ccccc3)c2)cc(C)c1Oc1nc(Nc2ccc(C#N)cc2)nc2ccn(C)c12` [Example 76, 4-(4-(4-(1-benzyl-1H-pyrazol-4-yl)-2,6-dimethylphenoxy)-5-methyl-5H-pyrrolo[3,2-d]pyrimidin-2-ylamino)benzonitrile], the values for the EC50 in the assay on HIV-1 K103N-L100I mutant and in the assay on wild type HIV-1 were above 10 nM and 1 to 10 nM, respectively.

With `Cc1cc(-c2cccc(C(N)=O)c2)cc(C)c1Oc1nc(Nc2ccc(C#N)cc2)nc2ccn(C)c12` [Example 77, 4′-(2-(4-cyanophenylamino)-5-methyl-5H-pyrrolo[3,2-d]pyrimidin-4-yloxy)-3′,5′-dimethylbiphenyl-3-carboxamide], the EC50 was above 10 nM in the assay on HIV-1 K103N-L100I mutant and 1 to 10 nM in the assay on wild type HIV-1.

Take `Cc1cc(-c2ccnc(N3CCOCC3)c2Cl)cc(C)c1Oc1nc(Nc2ccc(C#N)cc2)nc2ccn(C)c12` [Example 79, 4-(4-(4-(3-chloro-2-morpholinopyridin-4-yl)-2,6-dimethylphenoxy)-5-methyl-5H-pyrrolo[3,2-d]pyrimidin-2-ylamino)benzonitrile]: the EC50 in the assay with HIV-1 K103N-L100I mutant and in the assay with wild type HIV-1 was 1 to 10 nM each time.

As for `Cc1cc(-c2cccnc2Cl)cc(C)c1Oc1nc(Nc2ccc(C#N)cc2)nc2ccn(C)c12` [Example 80, 4-(4-(4-2-chloropyridin-3-yl)-2,6-dimethylphenoxy)-5-methyl-5H-pyrrolo[3,2-d] pyrimidin-2-ylamino benzonitrile], the EC50 in the assay with HIV-1 K103N-L100I mutant and in the assay on wild type HIV-1 was 1 to 10 nM in each case.

In the case of `COc1cccc(-c2cc(C)c(Oc3nc(Nc4ccc(C#N)cc4)nc4ccn(C)c34)c(C)c2)c1C#N` [Example 81, 4′-(2-(4-cyanophenylamino)-5-methyl-5H-pyrrolo[3,2-d]pyrimidin-4-yloxy)-3-methoxy-3′,5′-dimethylbiphenyl-2-carbonitrile], the EC50 in the assay on HIV-1 K103N-L100I mutant is above 10 nM; in the assay with wild type HIV-1 it was 1 to 10 nM.

`Cc1cc(-c2ccc(C#N)nc2)cc(C)c1Oc1nc(Nc2ccc(C#N)cc2)nc2ccn(C)c12` [Example 84, 5-(4-(2-(4-cyanophenylamino)-5-methyl-5H-pyrrolo[3,2-d]pyrimidin-4-yloxy)-3,5-dimethyl-phenyl)picolinonitrile]: the half-maximal effective concentration (EC50) with HIV-1 K103N-L100I mutant and with wild type HIV-1 was 1 to 10 nM in each case.

Turning to `Cc1cc(-c2ccc(S(=O)(=O)NC3CC3)cc2)cc(C)c1Oc1nc(Nc2ccc(C#N)cc2)nc2ccn(C)c12` [Example 85, 4′-(2-(4-cyanophenylamino)-5-methyl-5H-pyrrolo[3,2-d]pyrimidin-4-yloxy)-N-cyclopropyl-3′,5′-dimethylbiphenyl-4-sulfonamide], the EC50 in the assay on HIV-1 K103N-L100I mutant is above 10 nM; with wild type HIV-1, 1 to 10 nM.
